According to patent EP4714441A1, “COMPOSITION FOR PREVENTING OR ALLEVIATING HEPATIC DYSFUNCTION” (KIRIN HOLDINGS KABUSHIKI KAISHA, priority 2023, dated 2025):

Key:
Format in all cases: cell-based, human
HepG2 cells [1] = assay: Cell viability by MTT assay in HepG2 cells with hepatocyte damage induced by hydrogen peroxide; settings: HepG2 cells damaged by hydrogen peroxide; result in words
Procedure: (§1) A human liver cancer-derived cell line (HepG2: HB-8065™, Lot No. 70029112) was obtained from the American Type Culture Collection, and Dulbecco's Modified Eagle Medium (Thermo Fisher Scientific K.K.) containing 10% FBS was used as the basal medium. The cells were cultured in a 37°C, 5% CO2 incubator, and cells passaged for 17 to 22 generations were used for the experiments.
(§2) A cell suspension adjusted to an initial cell concentration of 2 x 10^4 cells/mL was seeded at 0.15 mL into a 96-well plate (Thermo Fisher Scientific K.K.).
After 20 hours of culture from seeding, alpha-lipoic acid trisulfide (LASSS) or alpha-lipoic acid trisulfide choline ester (LASSS-CE) was added to the medium in groups with a final concentration of 0.025 mM or 0.05 mM. Separately, a group to which only the solvent for LASSS or LASSS-CE (phosphate-buffered saline (PBS) containing 4% DMSO (FUJIFILM Wako Pure Chemical Corporation)) was added was designated as the solvent-added group. […] After culturing for 2 hours following the addition of hydrogen peroxide solution or PBS, cell viability was measured by the MTT assay to evaluate the extent of hepatocyte injury. […]

HepG2 cells [2] = assay: Cell viability by MTT assay in HepG2 cells without hydrogen peroxide (effect on cell proliferation itself); settings: without hydrogen peroxide solution; result in words
Procedure: as §1, §2
(§3) After 20 hours of culture from seeding, alpha-lipoic acid trisulfide (LASSS) or alpha-lipoic acid trisulfide choline ester (LASSS-CE) was added to the medium in groups with a final concentration of 0.025 mM or 0.05 mM. Separately, a group to which only the solvent for LASSS or LASSS-CE (phosphate-buffered saline (PBS) containing 4% DMSO (FUJIFILM Wako Pure Chemical Corporation)) was added was designated as the solvent-added group. After 4 hours of culture following the sample addition, the medium of the above sample-added groups and the solvent-added group was replaced with a medium (not containing LASSS or LASSS-CE) to which hydrogen peroxide solution (FUJIFILM Wako Pure Chemical Corporation) had been added to a final concentration of 0.1 mM, thereby inducing hepatocyte damage. A group in which the same amount of PBS was added instead of hydrogen peroxide solution to the solvent-added group was designated as the control group. After culturing for 2 hours following the addition of hydrogen peroxide solution or PBS, cell viability was measured by the MTT assay to evaluate the extent of hepatocyte injury. In the table, SD represents standard deviation.
(§4) Furthermore, to evaluate the effect of LASSS and LASSS-CE on cell proliferation itself, a similar experiment was conducted by replacing the addition of hydrogen peroxide solution with the addition of the same amount of PBS, and the cell viability was measured by the MTT assay method.

[3] = as above; settings: human, hepg2 cells, PBS instead of hydrogen peroxide, control group = 100; for viability at 25 µM: Sample-added group (0.025 mM); for viability at 50 µM: Sample-added group (0.05 mM)
Procedure: as §1, §2, §3, §4

Compound	cell viability compared to the hydrogen peroxide-added group (HepG2 cells [1])	effect on the proliferation of HepG2 cells (HepG2 cells [2])	viability at 25 µM [3] [%]	viability at 50 µM [3] [%]
O=C(O)CCCCC1CCSSS1 (stereo not drawn) [LASSS, alpha-lipoic acid trisulfide]	an improvement in cell viability was confirmed	did not affect the proliferation of HepG2 cells	102	102
C[N+](C)(C)CCOC(=O)CCCCC1CCSSS1 (stereo not drawn) [LASSS-CE, alpha-lipoic acid trisulfide choline ester]	an improvement in cell viability was confirmed	did not affect the proliferation of HepG2 cells	109	106
